Test results published in ChEMBL document CHEMBL1201862, “PubChem BioAssay data set” (2004).
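Following 48 hours of exposure in 96-well plates, responses at five concentrations were used to interpolate endpoints linearly. GI50 is the concentration that inhibits growth by half.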 Activity calls are given as the source filed them. Rule as the data show it: active = GI50 up to about 1.1 µM and inactive = higher.

How the values were obtained:
Assay in all cases: growth of human tumour cells (NCI), 48 h
[1] = test system: HOP-62
[2] = test system: BT-549
[3] = test system: K562
[4] = test system: OVCAR-3
[5] = test system: HT-29
[6] = test system: ACHN
[7] = test system: HOP-92
[8] = test system: KM12
[9] = test system: HCC 2998
[10] = test system: T47D
[11] = test system: HCT-15
[12] = test system: U-251
[13] = test system: SN12C
[14] = test system: NCI-H460
[15] = test system: SK-MEL-28
[16] = test system: SK-MEL-5
[17] = test system: OVCAR-5
[18] = test system: SR
[19] = test system: OVCAR-8
[20] = test system: SNB-19
[21] = test system: DU-145
[22] = test system: RPMI-8226
[23] = test system: A498
[24] = test system: HCT-116
[25] = test system: OVCAR-4
[26] = test system: A549
[27] = test system: LOX IMVI
[28] = test system: SF-268
[29] = test system: UACC-257
[30] = test system: MDA-MB-435
[31] = test system: MCF7
[32] = test system: PC-3
[33] = test system: Hs-578T
[34] = test system: SK-OV-3
[35] = test system: EKVX
[36] = test system: NCI-H522
[37] = test system: CCRF-CEM
[38] = test system: CAKI-1
[39] = test system: M14
[40] = test system: IGROV-1
[41] = test system: MDA-N
[42] = test system: Malme-3M
[43] = test system: RXF 393
[44] = test system: HL-60
[45] = test system: UACC-62
[46] = test system: NCI-H226
[47] = test system: UO-31
[48] = test system: MDA-MB-231
[49] = test system: TK-10
[50] = test system: COLO 205
[51] = test system: SNB-75
[52] = test system: SK-MEL-2
[53] = test system: SW-620
[54] = test system: NCI/ADR-RES
[55] = test system: 786-0
[56] = test system: NCI-H23
[57] = test system: SF-295
[58] = test system: MOLT-4

Measured: GI50

CCCn1cnc2c(SCC(=O)O)nc(N)nc21
> 100 µM: [11]
inactive: [1] > 100 µM | [2] > 100 µM | [3] > 100 µM | [4] > 100 µM | [5] > 100 µM | [6] > 100 µM | [7] > 100 µM | [8] > 100 µM | [9] > 100 µM | [10] > 100 µM | [12] > 100 µM | [13] > 100 µM | [14] > 100 µM | [15] > 100 µM | [16] > 100 µM | [17] > 100 µM | [18] > 100 µM | [19] > 100 µM | [20] > 100 µM | [21] > 100 µM | [22] > 100 µM | [23] > 100 µM | [24] > 100 µM | [25] > 100 µM | [26] > 100 µM | [27] > 100 µM | [28] > 100 µM | [29] > 100 µM | [30] > 100 µM | [31] > 100 µM | [32] > 100 µM | [33] > 100 µM | [34] > 100 µM | [35] > 100 µM | [36] > 100 µM | [37] > 100 µM | [38] > 100 µM | [39] > 100 µM | [40] > 100 µM | [41] > 100 µM | [42] > 100 µM | [43] > 100 µM | [44] > 100 µM | [45] > 100 µM | [46] > 100 µM | [47] > 100 µM | [48] > 100 µM | [49] > 100 µM | [50] > 100 µM | [51] > 100 µM | [52] > 100 µM | [53] > 100 µM | [54] > 100 µM | [55] > 100 µM | [56] > 100 µM | [57] > 100 µM

O=C1[C@@H]2[C@@H](CN3CN(c4ccccc4)N=C(c4ccccc4)[C@@]23c2ccccc2)C(=O)N1c1ccccc1
active: [36] 0.547 µM | [38] 0.863 µM | [46] 0.977 µM
inactive: [1] 14 µM | [2] 3.61 µM | [3] 2.69 µM | [4] 7.73 µM | [5] 2.36 µM | [6] 1.83 µM | [58] 2.84 µM | [7] 1.79 µM | [8] 14.3 µM | [9] 25.2 µM | [10] 2.58 µM | [12] 8.99 µM | [13] 6.58 µM | [14] 19.8 µM | [15] 11.3 µM | [16] 16.9 µM | [17] 4.7 µM | [18] 2.61 µM | [19] 5.85 µM | [20] 16.7 µM | [21] 7.14 µM | [22] 1.61 µM | [23] 18.4 µM | [24] 5.07 µM | [25] 2.61 µM | [26] 6.11 µM | [27] 1.68 µM | [28] 18.8 µM | [29] 12 µM | [30] 5.68 µM | [31] 1.94 µM | [32] 6.31 µM | [33] 20.3 µM | [34] 14 µM | [35] 4.89 µM | [37] 1.45 µM | [39] 2.94 µM | [40] 13.8 µM | [41] 5.19 µM | [42] 1.82 µM | [43] 2.95 µM | [44] 2.25 µM | [45] 5.98 µM | [47] 1.73 µM | [48] 4.54 µM | [49] 1.48 µM | [50] 1.91 µM | [51] 16 µM | [52] 14.9 µM | [53] 2 µM | [54] 17.5 µM | [55] 1.88 µM | [56] 8.69 µM | [57] 15.1 µM
2.3 µM: [11]

N#CC(C#N)=C1C(C#N)=C(N)NC12OCCO2
> 100 µM: [11]
inactive: [1] > 100 µM | [2] > 100 µM | [3] > 100 µM | [5] > 100 µM | [6] > 100 µM | [58] > 100 µM | [7] > 100 µM | [8] > 100 µM | [9] > 100 µM | [10] > 100 µM | [12] > 100 µM | [13] > 100 µM | [14] > 100 µM | [15] > 100 µM | [16] > 100 µM | [17] > 100 µM | [18] > 100 µM | [19] > 100 µM | [20] > 100 µM | [21] > 100 µM | [22] > 100 µM | [23] > 100 µM | [24] > 100 µM | [25] > 100 µM | [26] > 100 µM | [27] > 100 µM | [28] > 100 µM | [29] > 100 µM | [30] > 100 µM | [31] > 100 µM | [32] > 100 µM | [33] > 100 µM | [34] > 100 µM | [35] > 100 µM | [36] > 100 µM | [37] > 100 µM | [38] > 100 µM | [39] > 100 µM | [40] > 100 µM | [41] > 100 µM | [42] > 100 µM | [43] > 100 µM | [44] > 100 µM | [45] > 100 µM | [46] > 100 µM | [47] > 100 µM | [48] > 100 µM | [49] > 100 µM | [50] > 100 µM | [52] > 100 µM | [53] > 100 µM | [54] > 100 µM | [55] > 100 µM | [56] > 100 µM | [57] > 100 µM
